Results: US20080008773A1, “Food beverage or feed for the promotion of osteogenesis comprising umbelliferae, liliaceae or compositae plant species” (priority 2002, published 2008)

Key:
ST-2 cells = assay: Induction of differentiation of ST-2 cells into osteoblasts (alkaline phosphatase as index); type: cell-based, Mouse
Protocol: (§1) (1) Mouse interstitial cell strain ST-2 was suspended in DMEM medium (manufactured by Bio Whittaker) containing 10% fetal bovine serum (manufactured by Bio Whittaker) so as to have a concentration of 3×10^4 cells/ml. The suspension was put to a 96-well plate in an amount of 0.1 ml per well, and the cells were cultured sterilely. After the cells were cultured for 2 days, the medium was exchanged with a fresh medium. The compound a derived from root portions of Angelica keiskei koidz. obtained in Example 1 was added thereto as a sample, and the cells were cultured for 3 days. Subsequently, differentiation of ST-2 cells into osteoblasts was measured using alkaline phosphatase as an index. The cells were washed once with PBS, 100 μl of a reaction substrate solution (100 mM diethanolamine buffer, pH 10.0, 2 mM magnesium chloride, 1 mM p-nitrophenyl phosphate) was added thereto, and the reaction was carried out at 37° C. for 30 minutes. Next, the reaction was terminated with adding 100 μl of 0.2 N sodium hydroxide, and the amount of p-nitrophenol which was released was determined by determining absorbance at 405 nm. The activity for induction of differentiation into osteoblasts was shown by setting a group without addition of the sample as a control, and defining alkaline phosphatase activity of the control as 100%. The experiments were carried out twice, and the average was taken.

MC3T3-E1 cells = assay: Induction of differentiation of MC3T3-E1 cells into osteoblasts (alkaline phosphatase as index); type: cell-based, Mouse
Protocol: as §1
Mouse pre-osteoblast strain MC3T3-E1 was suspended in DMEM medium containing 10% fetal bovine serum so as to have a concentration of 3×10^4 cells/ml. The suspension was put to a 96-well plate in an amount of 0.1 ml per well, and the cells were cultured sterilely. After the cells were cultured for 2 days, the medium was exchanged with a fresh medium. The compound a derived from root portions of Angelica keiskei koidz. obtained in Example 1 was added thereto as a sample, and the cells were cultured for 5 days. Subsequently, the differentiation into osteoblasts was determined using alkaline phosphatase as an index in the same manner as in Example 2.

**Q.** How did the “Induction of differentiation into osteoblasts (in words)” value (ST-2 cells) turn out when `CC12CCC(O)C(C)(C)C1Cc1c(O)ccc(C(=O)/C=C/c3ccc(O)cc3)c1O2` (single isomer, unassigned) [Compound a, (E)-1-(5,6,7,8,8a,10a-hexahydro-1,7-dihydroxy-8,8,10a-trimethyl-9H-xanthen-4-yl)-3-(4-hydroxyphenyl)-2-propen-1-one] was run?
**A.** induces differentiation into osteoblasts in a concentration-dependent manner

**Q.** And the activity at 0.313 µM (ST-2 cells; Mus musculus, 72 h, 0.313 μM, cultured 3 days, control without sample = 100%)?
**A.** 219%

**Q.** And the activity at 0.625 µM (ST-2 cells; Mus musculus, 72 h, 0.625 μM, cultured 3 days, control without sample = 100%)?
**A.** 260%

**Q.** What about the activity at 1.25 µM (ST-2 cells; Mus musculus, 72 h, 1.25 μM, cultured 3 days, control without sample = 100%) of the same compound?
**A.** 358%

**Q.** What about the “Induction of differentiation into osteoblasts (in words)” value (MC3T3-E1 cells) of the same compound?
**A.** induces the differentiation into osteoblasts in a concentration-dependent manner

**Q.** What about the activity at 1.25 µM (MC3T3-E1 cells; Mus musculus, 120 h, 1.25 μM, cultured 5 days, control = 100%) of the same compound?
**A.** 171%

**Q.** And the activity at 2.5 µM (MC3T3-E1 cells; Mus musculus, 120 h, 2.5 μM, cultured 5 days, control = 100%)?
**A.** 292%
